Assay [1] has as its system HeLa. In words: Cytotoxicity against human HeLa cells assessed as reduction in cell viability using compound addition to cell culture cells in lag phase of growth and incubated for 48 hrs by MTT assay. It is filed as functional, cell-based. The following applies: Homo sapiens, HeLa, 48 h; read-out: IC50.
Assay [2] relates to HeLa. In words: Cytotoxicity against human HeLa cells assessed as reduction in cell viability using compound addition to cell culture cells in log phase of growth and incubated for 48 hrs by MTT assay. Format: functional, cell-based. The following applies: Homo sapiens, HeLa, 48 h; read-out: IC50.
The subject of assay [3] is A549. In words: Cytotoxicity against human A549 cells assessed as reduction in cell viability using compound addition to cell culture cells in lag phase of growth and incubated for 48 hrs by MTT assay. Format: functional, cell-based. The settings on record: Homo sapiens, A549, 48 h; read-out: IC50. In general terms: Formazan colour is commonly taken as a measure of viable cells.

In assay [4] the test system is A549. Put plainly: Cytotoxicity against human A549 cells assessed as reduction in cell viability using compound addition to cell culture cells in log phase of growth and incubated for 48 hrs by MTT assay. Format: functional, cell-based. The following applies: Homo sapiens, A549, 48 h; read-out: IC50.
Assay [5] relates to MCF7. Put plainly: Cytotoxicity against human MCF7 cells assessed as reduction in cell viability using compound addition to cell culture cells in lag phase of growth and incubated for 48 hrs by MTT assay. Format: functional, cell-based. The settings on record: Homo sapiens, MCF7, 48 h; read-out: IC50.
Assay [6] concerns MCF7. Put plainly: Cytotoxicity against human MCF7 cells assessed as reduction in cell viability using compound addition to cell culture cells in log phase of growth and incubated for 48 hrs by MTT assay. It is filed as functional, cell-based. The following applies: Homo sapiens, MCF7, 48 h; read-out: IC50.
The test system of assay [7] is Vero. In words: Cytotoxicity against African green monkey Vero cells assessed as reduction in cell viability using compound addition to cell culture cells in lag phase of growth and incubated for 48 hrs by MTT assay. The settings on record: Chlorocebus sabaeus, Vero, 48 h; read-out: IC50. Format: cell-based, Chlorocebus sabaeus.
In assay [8] the test system is Vero. In words: Cytotoxicity against African green monkey Vero cells assessed as reduction in cell viability using compound addition to cell culture cells in log phase of growth and incubated for 48 hrs by MTT assay. The following applies: Chlorocebus sabaeus, Vero, 48 h; read-out: IC50. It is filed as cell-based, Chlorocebus sabaeus.

In the case of `COC(=O)CCC(=O)OCC1=C(C)C[C@H]([C@@H](C)[C@H]2CC[C@H]3[C@@H]4C[C@H]5O[C@]56[C@@H](O)C=CC(=O)[C@]6(C)[C@H]4CC[C@]23C)OC1=O`, the half-maximal inhibitory concentration (IC50) – broadly, the concentration at which inhibition is half-maximal – in the assay with HeLa [1] was 0.9 µM; in the assay with HeLa [2], 2.9 µM; in the assay on A549 [3], 2.3 µM; in the assay with A549 [4], 3.7 µM; in the assay on MCF7 [5], 0.4 µM; with MCF7 [6], 1.6 µM. Also, the concentration for half-maximal inhibition (IC50) in the assay on Vero [7] and with Vero [8] was 0.6 µM each time.

Turning to `CC1=C(CO[Si](C)(C)C(C)(C)C)C(=O)O[C@@H]([C@@H](C)[C@H]2CC[C@H]3[C@@H]4C[C@H](O)[C@]5(O)[C@@H](O)C=CC(=O)[C@]5(C)[C@H]4CC[C@]23C)C1`, the IC50 in the assay with HeLa [1] stood at 14.8 µM; with HeLa [2], 12 µM; with A549 [3] it was 14.2 µM; in the assay on A549 [4], 10 µM; in the assay on MCF7 [5] it was 7.5 µM; in the assay on MCF7 [6], 5.6 µM. Moreover, the IC50 was 7.9 µM in the assay with Vero [7] and 7.6 µM in the assay on Vero [8].

For `CC1=C(COC(=O)c2ccoc2)C(=O)O[C@@H]([C@@H](C)[C@H]2CC[C@H]3[C@@H]4C[C@H](Cl)[C@]5(O)[C@@H](O)C=CC(=O)[C@]5(C)[C@H]4CC[C@]23C)C1`, the IC50 with HeLa [1] was above 40 µM; in the assay on HeLa [2], above 40 µM; in the assay on A549 [3] it was above 40 µM; in the assay on A549 [4], above 40 µM; with MCF7 [5], 33.5 µM; with MCF7 [6], 28.6 µM. Moreover, the figures for the half-inhibitory concentration (IC50) in the assay with Vero [7] and with Vero [8] were 30.6 µM and 31.2 µM, respectively.

Consider `COc1ccc(C(=O)OCC2=C(C)C[C@H]([C@@H](C)[C@H]3CC[C@H]4[C@@H]5C[C@H](Cl)[C@]6(O)[C@@H](O)C=CC(=O)[C@]6(C)[C@H]5CC[C@]34C)OC2=O)cc1`, for which the IC50 in the assay on HeLa [1] was 26.4 µM; in the assay with HeLa [2], 37.7 µM; with A549 [3] it was above 40 µM; in the assay on A549 [4] it was above 40 µM; with MCF7 [5] it was 3 µM; in the assay with MCF7 [6], 6.8 µM. For the same compound, the IC50 came out at 3.8 µM with Vero [7] and 6.8 µM in the assay on Vero [8].

With `CC(=O)OCC1=C(C)C[C@H]([C@@H](C)[C@H]2CC[C@H]3[C@@H]4C[C@H]5O[C@]56[C@@H](OC(=O)c5ccc(Br)cc5)C=CC(=O)[C@]6(C)[C@H]4CC[C@]23C)OC1=O`, the half-maximal inhibitory concentration (IC50) came to 1.2 µM in the assay on HeLa [1]; 2.1 µM with HeLa [2]; 2.1 µM in the assay on A549 [3]; 1.7 µM with A549 [4]; 0.4 µM in the assay with MCF7 [5]; 0.6 µM with MCF7 [6]. Also, the IC50 turned out to be 0.5 µM in the assay on Vero [7] and 0.9 µM in the assay with Vero [8].

Regarding `CO[C@H]1C=CC(=O)[C@]2(C)[C@H]3CC[C@]4(C)[C@@H]([C@H](C)[C@H]5CC(C)=C(CO)C(=O)O5)CC[C@H]4[C@@H]3C[C@H]3O[C@]132`, the IC50 with HeLa [1] is 2.1 µM; in the assay on HeLa [2], 3.8 µM; in the assay on A549 [3] it was 4 µM; in the assay on A549 [4], 4.4 µM; in the assay with MCF7 [5], 1.1 µM; with MCF7 [6], 1.7 µM. The half-maximal inhibitory concentration (IC50) with Vero [7] came to 0.9 µM; with Vero [8], 1.5 µM.

`C[C@@H]([C@H]1CC[C@H]2[C@@H]3C[C@H]4O[C@]45[C@@H](O)[C@H]4O[C@H]4C(=O)[C@]5(C)[C@H]3CC[C@]12C)[C@H]1C[C@@]2(C)O[C@@]2(CO)C(=O)O1`: the IC50 in the assay with HeLa [1], in the assay with HeLa [2], with A549 [3], with A549 [4], in the assay with MCF7 [5] and in the assay with MCF7 [6] was above 40 µM each time. Besides, the concentration for half-maximal inhibition (IC50) in the assay on Vero [7] and with Vero [8] was above 40 µM in each case.

In the case of `CC1=C(COC(=O)c2ccc(Br)cc2)C(=O)O[C@@H]([C@@H](C)[C@H]2CC[C@H]3[C@@H]4C[C@H]5O[C@]56[C@@H](O)C=CC(=O)[C@]6(C)[C@H]4CC[C@]23C)C1`, the half-maximal inhibitory concentration (IC50) in the assay with HeLa [1] was found to be 1.2 µM; with HeLa [2], 3.8 µM; with A549 [3] it was 2.9 µM; in the assay with A549 [4] it was 4.2 µM; with MCF7 [5], 1 µM; in the assay with MCF7 [6], 2.3 µM. Also, the IC50 stood at 0.5 µM in the assay on Vero [7] and 0.7 µM with Vero [8].

On to `COc1ccc(C(=O)OCC2=C(C)C[C@H]([C@@H](C)[C@H]3CC[C@H]4[C@@H]5C[C@H](Cl)[C@]6(O)[C@@H](OC(=O)c7ccc(OC)cc7)C=CC(=O)[C@]6(C)[C@H]5CC[C@]34C)OC2=O)cc1`, for which the concentration for half-maximal inhibition (IC50) is 11.2 µM in the assay on HeLa [1]; 28.1 µM in the assay on HeLa [2]; 24 µM in the assay on A549 [3]; above 40 µM in the assay with A549 [4]; 3 µM in the assay with MCF7 [5]; 4.5 µM in the assay with MCF7 [6]. The IC50 in the assay on Vero [7] stood at 3.7 µM; in the assay on Vero [8], 3 µM.

`CC1=C(CO)C(=O)O[C@@H]([C@@H](C)[C@H]2CC[C@H]3[C@@H]4C[C@H]5O[C@]56[C@@H](O)[C@@H](O)CC(=O)[C@]6(C)[C@H]4CC[C@]23C)C1` [VISCOSALACTONE B]: the IC50 in the assay with HeLa [1], in the assay on HeLa [2], in the assay with A549 [3], in the assay with A549 [4], in the assay on MCF7 [5] and in the assay on MCF7 [6] was above 40 µM in each case. In addition, the 50% inhibitory concentration (IC50) in the assay with Vero [7] and with Vero [8] was above 40 µM throughout.

`CC1=C(CO)C(=O)O[C@@H]([C@@H](C)[C@H]2CC[C@H]3[C@@H]4C[C@H]5O[C@]56[C@@H](O)[C@H]5O[C@H]5C(=O)[C@]6(C)[C@H]4CC[C@]23C)C1`: the IC50 with HeLa [1], in the assay with HeLa [2], in the assay with A549 [3], with A549 [4], with MCF7 [5] and in the assay on MCF7 [6] was above 40 µM in each case. Moreover, the IC50 with Vero [7] and in the assay on Vero [8] was above 40 µM in each case.

For `CC1=C(C)C(=O)O[C@@H]([C@@H](C)[C@H]2CC[C@H]3[C@@H]4C[C@H]5O[C@]56[C@@H](O)CC[C@@H](O)[C@]6(C)[C@H]4CC[C@]23C)C1`, the 50% inhibitory concentration (IC50) in the assay with HeLa [1], in the assay with HeLa [2], in the assay with A549 [3], with A549 [4], with MCF7 [5] and with MCF7 [6] was above 40 µM each time. The half-inhibitory concentration (IC50) with Vero [7] and with Vero [8] was above 40 µM in each case.

For the compound `C=CCOC(=O)/C(CO)=C(C)\C=C\[C@@H](C)[C@H]1CC[C@H]2[C@@H]3C[C@H]4O[C@]45[C@@H](O)C=CC(=O)[C@]5(C)[C@H]3CC[C@]12C`, the concentration for half-maximal inhibition (IC50) in the assay with HeLa [1] came to 4.2 µM; in the assay with HeLa [2], 7.1 µM; with A549 [3], 7.9 µM; in the assay on A549 [4] it was 8.3 µM; in the assay with MCF7 [5], 2.4 µM; with MCF7 [6], 2.4 µM. The IC50 in the assay with Vero [7] is 2.2 µM; with Vero [8], 4.7 µM.

Regarding `CC1=C(CO)C(=O)O[C@@H]([C@@H](C)[C@H]2CC[C@H]3[C@@H]4C[C@@H](O)[C@]56ON[C@H](CC(=O)[C@]5(C)[C@H]4CC[C@]23C)[C@@H]6O)C1`, the 50% inhibitory concentration (IC50) in the assay on HeLa [1], in the assay with HeLa [2], in the assay on A549 [3], with A549 [4], with MCF7 [5] and with MCF7 [6] was above 40 µM throughout. Also, the half-maximal inhibitory concentration (IC50) with Vero [7] and with Vero [8] was above 40 µM each time.

Regarding `CC1=C(CO[Si](C)(C)C(C)(C)C)C(=O)O[C@@H]([C@@H](C)[C@H]2CC[C@H]3[C@@H]4C[C@H](Cl)[C@]5(O)[C@@H](O)C=CC(=O)[C@]5(C)[C@H]4CC[C@]23C)C1`, the IC50 in the assay on HeLa [1] was 3.1 µM; in the assay on HeLa [2] it was 3.4 µM; with A549 [3], 4.1 µM; in the assay on A549 [4], 3.8 µM; with MCF7 [5], 2.5 µM; in the assay on MCF7 [6], 3.1 µM. The IC50 with Vero [7] is 3.5 µM; with Vero [8], 3.1 µM.

Consider `CC(=O)OCC1=C(C)C[C@H]([C@@H](C)[C@H]2CC[C@H]3[C@@H]4C[C@H]5O[C@]56C(=O)C=CC(=O)[C@]6(C)[C@H]4CC[C@]23C)OC1=O`, for which the IC50 in the assay with HeLa [1] was 16.3 µM; in the assay with HeLa [2], 17.5 µM; with A549 [3] it was 13.2 µM; with A549 [4], 16.2 µM; with MCF7 [5] it was 6.4 µM; in the assay on MCF7 [6], 6.8 µM. Also, the concentration for half-maximal inhibition (IC50) with Vero [7] came to 3.9 µM; in the assay with Vero [8], 6.4 µM.

On to `COC(=O)CCC(=O)OCC1=C(C)C[C@H]([C@@H](C)[C@H]2CC[C@H]3[C@@H]4C[C@H]5O[C@]56[C@@H](OC(=O)CCC(=O)OC)C=CC(=O)[C@]6(C)[C@H]4CC[C@]23C)OC1=O`, for which the concentration for half-maximal inhibition (IC50) with HeLa [1] amounted to 1.8 µM; with HeLa [2], 2.9 µM; in the assay on A549 [3], 2.1 µM; in the assay with A549 [4], 3.4 µM; in the assay with MCF7 [5] it was 1.4 µM; in the assay on MCF7 [6], 1.5 µM. The half-maximal inhibitory concentration (IC50) is 0.7 µM with Vero [7] and 0.6 µM with Vero [8].

The values are drawn from ChEMBL document CHEMBL4190346, “Structure-based design, synthesis, and biological evaluation of withaferin A-analogues as potent apoptotic inducers” (Eur J Med Chem, 2017).
